We go through eight compounds from patent publication US20130108610A1 (priority 2011, published 2013).

The target of one test is T1, aconitase (Saccharomyces cerevisiae, UniProt P19414).
T1 construct: endogenous in cells; host or cells: Saccharomyces cerevisiae strain BY4741
Briefly: Aconitase activity in lysates of treated Saccharomyces cerevisiae BY4741 cultures (Bioxytech Aconitase-340 kit). It counts as cell-based. The following applies: for Aconitase Activity, % of Untreated Control: S. cerevisiae BY4741 in YPD, incubated overnight, cell lysate, negative activity reported as 0; for Aconitase inhibition (in words): culturing of cells in the presence of the material, effective = inhibition by 70% or more. As to the method:
Cultures of Saccharomyces cerevisiae strain BY4741 are grown in YPD (20 grams glucose, 20 grams peptone, 10 grams yeast extract per liter) broth overnight at 30°. The cultures are diluted with YPD to a total volume of 100 mls with an optical density (600 nm) of 0.1. The cultures are incubated with shaking until reaching an optical density of 0.2, whereupon the test material is added. The cultures are incubated overnight, and the cells are pelleted by centrifugation. The cell pellet is washed with 100 mM NaCl, 20 mM Tris pH 7.4 and resuspended in 5 ml of 100 mM NaCl, 20 mM Tris pH 7.4. Glass beads (0.5 mm) is added. The sample is alternately vortexed for one minute and incubated on ice for one minute, with a total of ten treatments. After centrifugation, the supernatant is collected. In a 96-well plate (UV-transparent Corning 3679 plate), 30 μl of cell lysate is mixed with 20 μl 100 mM NaCl, 20 mM Tris pH 7.4 and assayed using a Bioxytech Aconitase-340 kit (OxisResearch) according to instructions.
For the aconitase assay, samples are incubated for six minutes at 37°. The reaction rate is calculated based on the increase in optical density (340 nm) in the five-minute interval beginning one minute after the reaction started. The aconitase activity in lysates of treated samples is divided by the aconitase activity in lysates of untreated samples. If replicates were performed on samples, the reported data are a mean of the aconitase activity measurements of individual lysates of treated cells divided by the mean of the aconitase activity measurements of individual lysates of untreated cells. If the aconitase activity appears to be negative in lysates of treated cells, the value “0” is reported for aconitase activity (Table 1).

Another test concerns Saccharomyces. The following applies: minimal medium; by inhibition of glutamate and lysine synthesis.

T1 sequence (P19414 17-778): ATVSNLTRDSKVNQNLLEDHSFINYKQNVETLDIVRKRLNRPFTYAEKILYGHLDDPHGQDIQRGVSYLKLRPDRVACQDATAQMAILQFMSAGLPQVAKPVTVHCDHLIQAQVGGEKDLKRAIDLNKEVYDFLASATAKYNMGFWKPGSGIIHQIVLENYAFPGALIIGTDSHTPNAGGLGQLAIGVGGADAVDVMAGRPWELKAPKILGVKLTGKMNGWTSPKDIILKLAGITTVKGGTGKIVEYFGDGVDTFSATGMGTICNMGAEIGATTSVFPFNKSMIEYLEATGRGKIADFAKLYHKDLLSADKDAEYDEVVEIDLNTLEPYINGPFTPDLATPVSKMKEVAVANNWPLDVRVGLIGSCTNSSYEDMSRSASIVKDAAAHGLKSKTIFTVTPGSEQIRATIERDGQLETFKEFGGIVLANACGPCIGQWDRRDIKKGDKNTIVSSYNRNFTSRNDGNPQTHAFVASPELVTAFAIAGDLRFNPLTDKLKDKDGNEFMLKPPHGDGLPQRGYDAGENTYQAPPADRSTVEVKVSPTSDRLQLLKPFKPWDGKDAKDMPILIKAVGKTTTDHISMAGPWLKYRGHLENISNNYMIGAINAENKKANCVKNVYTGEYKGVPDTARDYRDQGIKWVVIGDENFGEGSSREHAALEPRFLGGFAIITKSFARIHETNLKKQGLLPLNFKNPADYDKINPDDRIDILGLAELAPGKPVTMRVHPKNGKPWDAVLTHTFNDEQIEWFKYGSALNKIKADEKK

With `On1ccccc1=S.On1ccccc1=S.[Cu]` [Copper Pyrithione (CuPT), Copper Pyrithione], at aconitase (5 ppm test material), the “Aconitase Activity, % of Untreated Control” value (“Aconitase Activity, %” below) came out at 0%.

Regarding `CCCCCCCCOc1cccc(=O)n1O.NCCO` [N-Hydroxy-6-octyloxypyridine-2(1H)one, ethanolamine salt], the “Aconitase Activity, %” value at aconitase (50 ppm test material) was 0%.

For `O=C(O)CN(CCN(CC(=O)O)CC(=O)O)CC(=O)O` [EDTA], the “Aconitase Activity, %” value on aconitase (50 ppm test material) is on record as 36%. The “Aconitase inhibition (in words)” value on aconitase was “not effective”.

Take `[O-]n1ccccc1=S.[O-]n1ccccc1=S.[Zn+2]` [Zinc pyrithione (ZPT), zinc salt of 1-hydroxy-2-pyridinethione]: the “Growth inhibition (in words)” value in the test with Saccharomyces is listed as “inhibits growth”. The “Aconitase Activity, %” value at aconitase (5 ppm test material) is 0%. For the same compound, the “Aconitase inhibition (in words)” value on aconitase is on record as “aconitase inhibition”.

For `O=S(=O)([O-])[O-].[Zn+2]` [Zinc Sulfate], the “Aconitase Activity, %” value on aconitase (50 ppm test material) is 110%.

In the case of `Cc1cc(CC(C)CC(C)(C)C)n(O)c(=O)c1.NCCO` (centres unmarked) [Piroctone Diamine (Octopirox), Piroctone Diamine], the “Aconitase Activity, %” value at aconitase (50 ppm test material) is 0%.

`Oc1cccc2cccnc12` [8-Hydroxyquinoline]: the “Aconitase Activity, %” value at aconitase (50 ppm test material) is given as 15%.

Regarding `c1cnc2c(c1)ccc1cccnc12` [1,10-Phenanthroline], the “Aconitase Activity, %” value at aconitase (50 ppm test material) amounted to 2%.
